From PubChem BioAssay (NCI)
Several values for one entry are separate records, joined by “and”; a condition that tells them apart may be missing. Identical values can stand only once.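 Cells were grown in 96-well plates and exposed to each compound for 48 hours at five concentrations; endpoints were interpolated linearly between bracketing concentrations, or set to the highest concentration if not reached. GI50: concentration for 50% inhibition of growth. TGI: concentration producing complete growth inhibition.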

System: MDA-MB-468 breast
Assay: NCI-60 cell line screen, 48 h

Q: How did the GI50 turn out when `COc1nc2c(cc1S(=O)(=O)c1ccccc1)CCc1c-2cnn1Cc1ccccc1` was run?
A: 6450 nM

Q: What about the TGI of the same compound?
A: > 100000 nM

Q: Which GI50 does the source give for `COc1ccc2c(c1)C(=O)c1c-2c(OCCN(C)C)nc2cc(OC)ccc12` here?
A: 1870 nM

Q: And the TGI?
A: 8570 nM

Q: How did the GI50 turn out when `O=C(CCc1ccco1)NC1CCN(CC2(c3ccc(Cl)cc3)CCC2)CC1` was run?
A: 5280 nM

Q: And the TGI?
A: 18900 nM

Q: What does the source list for `COc1cc(/C=C2\CCCC3C2=Nc2ccccc2NC3c2cc(OC)c(OC)c(OC)c2)cc(OC)c1OC` (stereo unspecified)?
A: GI50: 1710 nM; TGI: 6100 nM

Q: For `Cc1c2cnccc2c(C)c2c1c1cc(C(=O)O)ccc1n2C`, which GI50 is on record?
A: 837 nM

Q: And the TGI?
A: 3070 nM

Q: Which results are given for `O=C(C[C@@]1(O)C(=O)Nc2c(Cl)ccc(Cl)c21)c1ccc(C2CC2)cc1`?
A: GI50: 221 nM; TGI: 18600 nM

Q: For `Cc1cc(Nc2cc(CN3CCOCC3)c3nc(C)c(Cc4ccc(Cl)cc4F)n3n2)n[nH]1`, which GI50 is on record?
A: 441 nM

Q: What about the TGI of the same compound?
A: 2950 nM

Q: How did the GI50 turn out when `O=C(Nc1ccc(Cl)cc1F)c1cc(F)ccc1O` was run?
A: 1270 nM

Q: And the TGI?
A: 5180 nM

Q: Which GI50 does the source give for `COc1cc2cn3c4ccc(O)cc4nc(N)c3c2cc1OC` here?
A: 313 nM

Q: What about the TGI of the same compound?
A: 2210 nM

Q: `COc1cccc2c1C(=O)c1c(O)c3c(c(O)c1C2=O)C[C@@](O)(C(=O)CO)C[C@@H]3OC1CC(OC(C)=O)C(OC(C)=O)C(C)O1` (stereo partly specified) was tested. Which GI50 did it give?
A: 530 nM

Q: And the TGI?
A: 5060 nM

Q: How did the GI50 turn out when `COc1ccc(-c2nn(-c3ccc(NC(=O)Nc4ccc(Cl)c(Cl)c4)cc3)cc2-c2ccncc2)cc1Cl` was run?
A: 1610 nM

Q: And the TGI?
A: 4480 nM

Q: `CC(C)(C)OC(=O)N1CC(Cn2cc(C(F)(F)F)c3c(Cl)ncnc32)C1` was tested. Which GI50 did it give?
A: 1840 nM

Q: What about the TGI of the same compound?
A: 3870 nM

Q: Which GI50 does the source give for `NC(=O)c1ccc2nc(-c3ccc(C4(N)CCC4)cc3)c(-c3ccccc3)n2n1` here?
A: 169 nM

Q: And the TGI?
A: 10300 nM

Q: Which GI50 does the source give for `COc1ccc(C2=CC(c3ccc(Oc4ccnc5cc(Cl)ccc45)c(OC)c3)c3c(nc(OC)[nH]c3=O)N2)cc1` (stereo unspecified) here?
A: 5220 nM

Q: What about the TGI of the same compound?
A: > 100000 nM

Q: For `COc1ccc2c(O)c(/C=C3\N=Nc4ncccc43)oc2c1C[C@H]1CCNC[C@H]1F`, which GI50 is on record?
A: 246 nM

Q: What about the TGI of the same compound?
A: 1950 nM

Q: With `CCN(CC)S(=O)(=O)c1ccc(-c2nc(C(Cl)Cl)nc3cc(C)nn23)cc1` as the compound, how does the GI50 read?
A: 1720 nM

Q: And the TGI?
A: 4440 nM

Q: For `CCOC(=O)/C(=C/c1ccccc1)C(=O)c1ccccc1`, which GI50 is on record?
A: 3770 nM

Q: And the TGI?
A: 13800 nM

Q: What does the source list for `FC(F)(F)c1[nH]ncc1-c1nc2c(N3CCCCC3)cc3[nH]ncc3c2c2c1CCCC2`?
A: GI50: 691 nM; TGI: 2450 nM

Q: `COc1ccc(-c2ccc3ncc4c(c3c2)n(-c2ccc(N3CCNCC3)c(C(F)(F)F)c2)c(=O)n4C)cn1` was tested. Which GI50 did it give?
A: < 10 nM and 3.18 nM

Q: And the TGI?
A: 19.4 nM and 19.9 nM

Q: Which results are given for `N=C(N)c1ccc(-c2ccc(-c3cncc4ccccc34)s2)cc1F`?
A: GI50: 1280 nM; TGI: 2950 nM

Q: Which results are given for `COc1ccc2[nH]c(-c3ccccc3)c(C=C(C#N)C#N)c2c1`?
A: GI50: 2130 nM; TGI: 49900 nM

Q: How did the GI50 turn out when `C[C@@H]1[C@H]2[C@H](C=C3[C@@H]4CC[C@H]5Cc6nc7c(nc6C[C@]5(C)[C@H]4C[C@@H](O)[C@@]32C)C[C@@H]2CC[C@H]3C4=C[C@@H]5O[C@@]6(CC[C@](C)(CO)O6)[C@@H](C)[C@@]5(O)[C@@]4(C)[C@H](O)C[C@@H]3[C@@]2(C)C7)O[C@]12CCC(C)(C)O2` was run?
A: 961 nM

Q: And the TGI?
A: 20700 nM

Q: For `COc1cc(-c2cc(-c3nc4cc(Cl)c(Cl)cc4[nH]3)[nH]n2)cc(OC)c1OC`, which GI50 is on record?
A: 3490 nM

Q: And the TGI?
A: 16200 nM

Q: Which GI50 does the source give for `CCN1CCC2(CC1)NC(=O)c1c(c3ccc(Cl)c(Cl)c3n1C)C2C#N` (stereo unspecified) here?
A: 1350 nM

Q: And the TGI?
A: 2910 nM

Q: `Cc1cc(O)c(C2=NN(c3ccc(S(N)(=O)=O)cc3)C(c3ccccc3O)C2)cc1Cl` (stereo unspecified) was tested. Which GI50 did it give?
A: 2260 nM

Q: And the TGI?
A: 5700 nM

Q: Which results are given for `CN1C(=O)N(C)C2C1NN=c1s/c(=C\c3c[nH]c4ccccc34)c(=O)n12` (stereo unspecified)?
A: GI50: 35.9 nM; TGI: > 86800 nM

Q: `Cc1cc(C(=O)N[C@@H](CCC(=O)O)C(=O)O)sc1CC[C@@H]1CNc2nc(N)[nH]c(=O)c2C1` was tested. Which GI50 did it give?
A: 33.3 nM

Q: With `OC(COc1cccc2ccccc12)CN1CCN(c2ccc(Cl)cc2)CC1` (stereo unspecified) as the compound, how does the GI50 read?
A: 36400 nM

Q: And the TGI?
A: > 100000 nM

Q: `C=CC[N+]1(CCO)CCN=C1CCCCCCCCCCCCC` (stereo unspecified) was tested. Which GI50 did it give?
A: 1180 nM

Q: And the TGI?
A: 2550 nM

Q: For `O=[N+]([O-])c1cccc(/C=C/c2ccccn2)c1`, which GI50 is on record?
A: 2250 nM

Q: What about the TGI of the same compound?
A: > 100000 nM

Q: Which GI50 does the source give for `CN(C)CCN1C(=O)c2cccc3c(N)ccc(c23)C1=O` here?
A: 8400 nM

Q: What about the TGI of the same compound?
A: > 25000 nM

Q: How did the GI50 turn out when `O=C1CCC(N2C(=O)c3ccc(NS(=O)(=O)c4ccccc4OC(F)(F)F)cc3C2=O)C(=O)N1` (stereo unspecified) was run?
A: 53.6 nM

Q: What about the TGI of the same compound?
A: 2130 nM

Q: Which results are given for `CSC1=Nc2c(c(C)c(-c3ccccc3)n2CCCCl)C2=NC(=O)CN12`?
A: GI50: 3130 nM; TGI: 13100 nM

Q: What does the source list for `COc1cc(OC)cc(-c2ccc(-c3ccc(C(=N)N)s3)s2)c1`?
A: GI50: 304 nM; TGI: 1160 nM

Q: What does the source list for `C=CC(=O)NCCOc1cccc(Nc2cc(NCCCNC(=O)C3CCC3)c(Br)cn2)c1`?
A: GI50: 1420 nM; TGI: 5080 nM

Q: `O=C1OCC2=C1C(c1cccc(C(F)(F)F)c1)c1cc3c(cc1N2CCO)OCO3` (stereo unspecified) was tested. Which GI50 did it give?
A: 244 nM

Q: What about the TGI of the same compound?
A: 2160 nM

Q: For `COc1cc(-c2nc(-c3nnc(-c4ccc(F)c(Cl)c4)o3)c3ccccn23)cc(OC)c1OC`, which GI50 is on record?
A: 3390 nM

Q: And the TGI?
A: > 100000 nM

Q: `C[C@H](C(=O)N[C@@H](Cc1ccc(-c2ccccc2)cc1)C(=O)NC1CC(C)(C)N(C)C(C)(C)C1)c1ccc(-c2ccccc2)c(F)c1` was tested. Which GI50 did it give?
A: 1240 nM

Q: What about the TGI of the same compound?
A: 2660 nM

Q: With `O=C1c2ccc3c4c(ccc(c24)C(=O)N1CCCNCc1ccccc1)C(=O)N(CCCNCc1ccccc1)C3=O` as the compound, how does the GI50 read?
A: 143 nM

Q: And the TGI?
A: 285 nM

Q: Which GI50 does the source give for `COc1cc(-c2nc3ccccc3[nH]2)ccc1OCC(=O)N=Nc1c(O)[nH]c2ccc(Cl)cc12` here?
A: 1740 nM

Q: And the TGI?
A: 3450 nM

Q: What does the source list for `CC(C)(C)CC(C)(C)N(CSc1ccc(Cl)cc1)CSc1ccc(Cl)cc1`?
A: GI50: 2610 nM; TGI: 12400 nM

Q: Which GI50 does the source give for `CCN1/C(=C/C=C/C=C/c2sc3ccccc3[n+]2CC)Sc2ccccc21` here?
A: 117 nM

Q: What about the TGI of the same compound?
A: 989 nM

Q: For `COc1ccc(Cn2cc3c(c2-c2cc(OC)c(OC)c(OC)c2)CCCc2cnoc2-3)cc1N`, which GI50 is on record?
A: 540 nM

Q: And the TGI?
A: > 100000 nM

Q: Which results are given for `Fc1c[c-]c(-c2ccccn2)c(F)c1.[CH3-].[Pt+2].c1ccc([PH+](c2ccccc2)c2ccccn2)cc1`?
A: GI50: 1400 nM; TGI: 4270 nM

Q: `COc1ccccc1-c1ccc2nc(NC(=O)Nc3cc(C(F)(F)F)cc(C(F)(F)F)c3)sc2c1` was tested. Which GI50 did it give?
A: 1520 nM

Q: And the TGI?
A: 5430 nM

Q: With `NC(N)=Nc1ccc(Oc2cccc(Nc3ccc(Cl)c(C(F)(F)F)c3)c2)cc1` as the compound, how does the GI50 read?
A: 1480 nM

Q: And the TGI?
A: 3480 nM
